# Results published in patent US20160158200A1, “Combinations of Hepatitis C Virus Inhibitors” (priority 2013, published 2016).
# System: HCV genotype-1a variant with glutamine 30 changed to glutamate in the NS5A protein
# Assay type: cell-based
# Settings: test compound titrated with BMS-790052 fixed at 200 nM; genotype 1a Q30E replicon
# Method in brief: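 Synergy was assessed by combining several fixed amounts of an NS5A-targeting compound with a titration of the second compound of interest.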
row,SMILES,Fold-Synergistic 1a (Q30E)
1,CC(C)(C)OC(=O)N1CC(C)(C(=O)NC(c2nc(-c3ccc(-c4ccc(-c5c[nH]c(C(NC(=O)C6(C)CN(C(=O)OC(C)(C)C)C6)C(C)(C)C)n5)cc4)cc3)c[nH]2)C(C)(C)C)C1 [Compound L-63],>100 fold
2,CC(C)(C)[C@H](NC(=O)C1(CO)CC(F)(F)C1)c1nc(-c2ccc(-c3ccc(-c4c[nH]c([C@@H](NC(=O)C5(CO)CC(F)(F)C5)C(C)(C)C)n4)cc3)cc2)c[nH]1 [Compound N-153],>100 fold
3,"CC(C)(C(=O)N[C@H](c1nc(-c2ccc(-c3ccc(-c4cnc([C@@H](NC(=O)C(C)(C)C5CCCO5)C(C)(C)C)[nH]4)cc3)cc2)c[nH]1)C(C)(C)C)C1CCCO1 (single isomer, unassigned) [Compound B-171]",>100 fold
4,CC(C)[C@H](NC(=O)C(C)(C)F)c1ncc(-c2ccc(-c3ccc(-c4cnc([C@@H](NC(=O)C(C)(C)F)C(C)(C)C)[nH]4)cc3)cc2)[nH]1 [Compound Y-48],>100 fold
5,"CC(C)(C(=O)N[C@H](c1nc(-c2ccc(-c3ccc(-c4c[nH]c([C@@H](NC(=O)C(C)(C)C(O)c5ccccc5)C(C)(C)C)n4)cc3)cc2)c[nH]1)C(C)(C)C)C(O)c1ccccc1 (single isomer, unassigned) [Compound N-127C]",>100 fold
6,CC(C)[C@H](NC(=O)c1ccccc1N(C)C)c1ncc(-c2ccc(-c3ccc(-c4cnc([C@@H](NC(=O)c5ccccc5N(C)C)C(C)C)[nH]4)cc3)cc2)[nH]1 [Compound S-91],>100 fold
7,CC(C)(C)[C@H](NC(=O)C1C2CC(F)(F)CC21)c1nc(-c2ccc(-c3ccc(-c4c[nH]c([C@@H](NC(=O)C5C6CC(F)(F)CC65)C(C)(C)C)n4)cc3)cc2)c[nH]1 (stereo partly shown) [Compound Y-7],>100 fold
8,CC(C)[C@H](NC(=O)c1ccccc1F)c1ncc(-c2ccc(-c3ccc(-c4cnc([C@@H](NC(=O)c5ccccc5F)C(C)C)[nH]4)cc3)cc2)[nH]1 [Compound P-63],>100 fold
9,CC(C)(C)[C@H](NC(=O)C1(C(=O)N2CCC(F)(F)CC2)CC1)c1nc(-c2ccc(-c3ccc(-c4c[nH]c([C@@H](NC(=O)C5(C(=O)N6CCC(F)(F)CC6)CC5)C(C)(C)C)n4)cc3)cc2)c[nH]1 [Compound P-148],>100 fold
10,CC(C)(C)[C@H](N)c1nc(-c2ccc(-c3ccc(-c4c[nH]c([C@@H](Nc5ncc(Br)cn5)C(C)(C)C)n4)cc3)cc2)c[nH]1 [Compound W-16B],<10 fold
11,COC(=O)N[C@@H](C(=O)N[C@H](c1ncc(-c2ccc(-c3ccc(-c4cnc([C@@H](NC(=O)[C@H](NC(=O)OC)c5ccccc5)C(C)C)[nH]4)cc3)cc2)[nH]1)C(C)C)c1ccccc1 [Compound P-103],>100 fold
12,Cc1ccc(S(=O)(=O)NC(c2nc(-c3ccc(-c4ccc(-c5c[nH]c(C(NS(=O)(=O)c6ccc(C)cc6)C(C)(C)C)n5)cc4)cc3)c[nH]2)C(C)(C)C)cc1 [Compound L-117],>100 fold
13,CC(C)[C@H](NC(=O)[C@@]1(C)CCC(F)(F)CO1)c1nc(-c2ccc(-c3ccc(-c4c[nH]c([C@@H](NC(=O)[C@@]5(C)CCC(F)(F)CO5)C(C)C)n4)c(F)c3)cc2)c[nH]1 [Compound N-132],>100 fold
14,CC(C)(C)[C@H](NC(=O)C1(C2(O)CCC(F)(F)CC2)CC1)c1nc(-c2ccc(-c3ccc(-c4c[nH]c([C@@H](NC(=O)C5(C6(O)CCC(F)(F)CC6)CC5)C(C)(C)C)n4)cc3)cc2)c[nH]1 [Compound P-146],>100 fold
15,CC(C)(C)[C@H](NC(=O)[C@@]1(C)CCC(F)(F)CO1)c1nc(-c2ccc(-c3cnc(-c4c[nH]c([C@@H](NC(=O)[C@@]5(C)CCC(F)(F)CO5)C(C)(C)C)n4)cn3)cc2)c[nH]1 [Compound N-130],>100 fold
16,CC(C)[C@H](NC(=O)C(=O)C1(C)CCCO1)c1ncc(-c2ccc(-c3ccc(-c4cnc([C@@H](NC(=O)C(=O)C5(C)CCCO5)C(C)C)[nH]4)cc3)cc2)[nH]1 (stereo partly shown) [Compound P-118],>100 fold
